Values belong to the substance of their own block, whether it stands above or below them.
How the values were obtained:
[1] = Solubility of peptides in DMSO/D5W/5 mM succinate formulation; conditions: pH 6
[2] = Direct dissolution of peptides in D5W without DMSO; type: physicochemical; conditions: <1 mg peptide
[3] = Peptide diluent matrix (precipitation of DMSO dissolved peptides in various liquids); type: physicochemical; design: key to Precipitation in diluent: Liposome / Precipitation in diluent: PBS pH 7.4 / Precipitation in diluent: Water / Precipitation in diluent: 10% Sucrose / Precipitation in diluent: D5W (5% Dextrose USP Grade Inj): P = precipitation; NP = no precipitation; conditions: for Precipitation in diluent: 10% Sucrose: 10-20 μL DMSO dissolved peptide added to 10% Sucrose; for Precipitation in diluent: D5W (5% Dextrose USP Grade Inj): 10-20 μL DMSO dissolved peptide added to D5W; for Precipitation in diluent: Liposome: 10-20 μL DMSO dissolved peptide added to Liposome; for Precipitation in diluent: PBS pH 7.4: 10-20 μL DMSO dissolved peptide added to PBS pH 7.4; for Precipitation in diluent: Water: 10-20 μL DMSO dissolved peptide added to Water
Procedure: Additional peptide solubility conditions were tested. Peptides CS6709, CS6712, CS6720, CS6726, and CS6783 were weighed at approximately 10 mg each. The peptides were then dissolved in approximately 200 μL USP grade DMSO to obtain a 50 mg/mL concentration for each peptide. […] The sample appeared to be cloudy. Additional 50 μL increments of DMSO were added to Peptide CS6709 up to 400 μL; for a total of 600 μL of DMSO. […] To dilute the peptides to 400 μg, a PBS pH 7.4 solution without potassium was prepared. All 5 DMSO peptide samples (50 mg/mL) were placed in a single vial for dilution to 400 μg/mL. Each DMSO peptide was added to the vial at 40 μL, except for CS6709 which was at a concentration of 16.67 mg/mL. The volume of CS6709 added to the single vial was 120 μL. The samples were diluted to 400 μg by adding 4.72 mL PBS pH 7.4. Upon addition of the PBS pH 7.4, it was observed that one or more of the peptides had precipitated out. To determine which of the peptides precipitated, Applicants followed the matrix in Table 5 below using very small amounts (10-20 μL) of the DMSO dissolved peptides and adding these peptides to the various liquids.

[4] = pH of peptide solutions in DMSO/D5W, with succinate, and with Hiltonol; type: physicochemical
[5] = Solubility of peptides in DMSO (50 mg/ml); type: physicochemical
Procedure: The only problematic peptides are very hydrophobic peptides. Additional peptide solubility conditions were tested. Peptides CS6709, CS6712, CS6720, CS6726, and CS6783 were weighed at approximately 10 mg each. The peptides were then dissolved in approximately 200 μL USP grade DMSO to obtain a 50 mg/mL concentration for each peptide. […] The sample appeared to be cloudy. Additional 50 μL increments of DMSO were added to Peptide CS6709 up to 400 μL; for a total of 600 μL of DMSO.

[6] = Short-term room temperature stability of Pool 3 mixed with Hiltonol (RP-HPLC); type: physicochemical
Procedure: A peptide pool (Pool 3) consisting of the five peptides shown in Table 6 below was prepared by dissolution in DMSO and dilution with D5W/Succinate (2 mM) to 2 mg/ml and pooling to a final peptide concentration of 400 μg per ml and a final DMSO concentration of 4%. After preparation, peptides were filtered with a 25 mm Pall PES filter (Cat#4612) and dispensed into Nunc Cryo vials (#375418) in one ml aliquots.
Three samples were prepared by mixing 0.75 ml of Pool3 with 0.25 ml Hiltonol® as planned for the dosage form preparation. The samples were then left at room temperature for 0, 4 and 6 hours and analyzed by RP-HPLC (Table 7). […] As slight increase in a second peak associated with peptide CS6919 was noted, increasing from 14% to 17% and 18% at 4 and 6 hours, respectively. […] Recovery of all peptides was above 90%, indicating no breakdown and loss of any peptides in the final dosage form after 6 hour room temperature incubation.

Substance: H-LDVLQRPLSPGNSEFLTATANYSK-OH
solubility [1]: < 2000 µg/mL

Dissolution directly in D5W without using DMSO [2]: could be dissolved directly in D5W
Precipitation in diluent: 10% Sucrose [3]: NP
Precipitation in diluent: D5W (5% Dextrose USP Grade Inj) [3]: NP
Precipitation in diluent: Liposome [3]: NP
Precipitation in diluent: PBS pH 7.4 [3]: NP
Precipitation in diluent: Water [3]: NP
Substance: H-LKDSNSWPPSNKRGFDTEDAHKSNATPVP-OH [CS6712]

Dissolution directly in D5W without using DMSO [2]: could not be dissolved
Precipitation in diluent: 10% Sucrose [3]: NP
Precipitation in diluent: D5W (5% Dextrose USP Grade Inj) [3]: NP
Precipitation in diluent: Liposome [3]: P
Precipitation in diluent: PBS pH 7.4 [3]: P
Precipitation in diluent: Water [3]: NP
Precipitation when PBS pH 7.4 added as diluent to the peptide mixture ([3]; dilution to 400 μg/mL): precipitate
pH of peptides in DMSO/D5W [4]: 3.96
Substance: H-LLTDRNTSGTTFTLLGVSDYPELQVPLFLVFLA-OH [CS6783]

Concentration at which peptide went into solution (clear) in DMSO [5]: 16670 µg/mL
Dissolution in DMSO at 50 mg/mL ([5]; 10.02 mg in 200 μL DMSO): did not fully dissolve
Dissolution directly in D5W without using DMSO [2]: could be dissolved directly in D5W
Precipitation in diluent: 10% Sucrose [3]: NP
Precipitation in diluent: D5W (5% Dextrose USP Grade Inj) [3]: NP
Precipitation in diluent: Liposome [3]: NP
Precipitation in diluent: PBS pH 7.4 [3]: NP
Precipitation in diluent: Water [3]: NP
Substance: H-LTDLPGRIRVAPQQNDLDSPQQISISNAE-OH [CS6709]

Substance: H-LVDQWRWGVFSGHTPPSRYNFDWWY-OH
solubility [1]: < 2000 µg/mL

Substance: H-PAAGDFIRFRFFQLLRLERFF-OH
solubility [1]: < 2000 µg/mL

Substance: H-PETGEIQVKTFLDREQRESYELKV-OH
solubility [1]: > 2000 µg/mL

Substance: H-PIDTSKTDPTVLLFMESQYSQLGQD-OH
solubility [1]: > 2000 µg/mL

Substance: H-SHKLESIKEITNFKDAKQLL-OH
solubility [1]: > 2000 µg/mL

% Impurity ([6]; Pool 3 + Hiltonol, 4 Hours RT): 3.06%
% Purity ([6]; Pool 3 + Hiltonol, 4 Hours RT): 96.94%
Main Peak ([6]; Pool 3 + Hiltonol, 4 Hours RT): 5842.22
Total Impurities ([6]; Pool 3 + Hiltonol, 4 Hours RT): 184.46
Total Peak ([6]; Pool 3 + Hiltonol, 4 Hours RT): 6026.68
% Impurity ([6]; Pool 3 + Hiltonol, 6 Hours RT): 3.41%
% Purity ([6]; Pool 3 + Hiltonol, 6 Hours RT): 96.59%
Main Peak ([6]; Pool 3 + Hiltonol, 6 Hours RT): 6268.16
Total Impurities ([6]; Pool 3 + Hiltonol, 6 Hours RT): 221.46
Total Peak ([6]; Pool 3 + Hiltonol, 6 Hours RT): 6489.62
% Impurity ([6]; T0 Pool 3 + Hiltonol, RP-HPLC): 3.83%
% Purity ([6]; T0 Pool 3 + Hiltonol, RP-HPLC): 96.17%
Main Peak ([6]; T0 Pool 3 + Hiltonol, RP-HPLC): 6147.14
Total Impurities ([6]; T0 Pool 3 + Hiltonol, RP-HPLC): 244.49
Total Peak ([6]; T0 Pool 3 + Hiltonol, RP-HPLC): 6391.63
pH of peptides in DMSO/D5W [4]: 3.86
pH of peptides in DMSO/D5W/5mM S. Succinate spike [4]: 6.57
pH of peptides in DMSO/D5W/5nnM Succinate and Hiltonol [4]: 6.79
Substance: H-SKRGVGAKTLLLPDPFLFWPCLEGTRRSL-OH [CS6934]

Substance: H-SLPKSFKRKIFVVSATKGVPAGNSD-OH
solubility [1]: > 2000 µg/mL

Dissolution directly in D5W without using DMSO [2]: could be dissolved directly in D5W
Precipitation in diluent: 10% Sucrose [3]: NP
Precipitation in diluent: D5W (5% Dextrose USP Grade Inj) [3]: NP
Precipitation in diluent: Liposome [3]: NP
Precipitation in diluent: PBS pH 7.4 [3]: NP
Precipitation in diluent: Water [3]: NP
Substance: H-SPTEPSTKLPGFDSCGNTEIAERKIKRIYGGFK-OH [CS6720]

% Impurity ([6]; Pool 3 + Hiltonol, 4 Hours RT): 3.02%
% Purity ([6]; Pool 3 + Hiltonol, 4 Hours RT): 96.98%
Main Peak ([6]; Pool 3 + Hiltonol, 4 Hours RT): 8523.53
Total Impurities ([6]; Pool 3 + Hiltonol, 4 Hours RT): 265.54
Total Peak ([6]; Pool 3 + Hiltonol, 4 Hours RT): 8789.07
% Impurity ([6]; Pool 3 + Hiltonol, 6 Hours RT): 3.21%
% Purity ([6]; Pool 3 + Hiltonol, 6 Hours RT): 96.79%
Main Peak ([6]; Pool 3 + Hiltonol, 6 Hours RT): 9387.81
Total Impurities ([6]; Pool 3 + Hiltonol, 6 Hours RT): 311.37
Total Peak ([6]; Pool 3 + Hiltonol, 6 Hours RT): 9699.18
% Impurity ([6]; T0 Pool 3 + Hiltonol, RP-HPLC): 2.16%
% Purity ([6]; T0 Pool 3 + Hiltonol, RP-HPLC): 97.84%
Main Peak ([6]; T0 Pool 3 + Hiltonol, RP-HPLC): 9014.82
Total Impurities ([6]; T0 Pool 3 + Hiltonol, RP-HPLC): 198.6
Total Peak ([6]; T0 Pool 3 + Hiltonol, RP-HPLC): 9213.42
pH of peptides in DMSO/D5W [4]: 3.80
pH of peptides in DMSO/D5W/5mM S. Succinate spike [4]: 6.42
pH of peptides in DMSO/D5W/5nnM Succinate and Hiltonol [4]: 6.66
Substance: H-VAGLAASGLHGSAWLVPGEQPVSGPHHGKQ-OH [CS6931]

Substance: H-VTLNDMKARQKALVRERERQLA-OH
solubility [1]: > 2000 µg/mL

From patent US20190060428A1, “FORMULATIONS FOR NEOPLASIA VACCINES AND METHODS OF PREPARING THEREOF” (The Broad Institue Inc., priority 2015, published 2019)
